Assay results: US10072003B2, “Tetrahydronaphthyridine derivatives as mGluR2-negative allosteric modulators, compositions, and their use” (Merck Sharp & Dohme Corp., priority 2014, dated 2018)

target: recombinant human mGluR2 (Homo sapiens (Human), UniProt Q14416); assay: FLIPR Ca2+ mobilization antagonist assay in CHO dhfr- cells expressing human mGluR2 and Gα16; assay type: cell-based; conditions: antagonist response after addition of 2,500 nM glutamate, Fluo-4 AM, FLIPR384
Method in brief: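 CHO dhfr- cells stably co-expressing human mGluR2 and Gα16, Fluo-4 AM loaded, preincubated with compound, then challenged with 2,500 nM glutamate; Ca2+ response read by FLIPR. Maximum calcium response vs concentration fitted to four-parameter logistic for IC50.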

recombinant human mGluR2, sequence (Q14416 19-872): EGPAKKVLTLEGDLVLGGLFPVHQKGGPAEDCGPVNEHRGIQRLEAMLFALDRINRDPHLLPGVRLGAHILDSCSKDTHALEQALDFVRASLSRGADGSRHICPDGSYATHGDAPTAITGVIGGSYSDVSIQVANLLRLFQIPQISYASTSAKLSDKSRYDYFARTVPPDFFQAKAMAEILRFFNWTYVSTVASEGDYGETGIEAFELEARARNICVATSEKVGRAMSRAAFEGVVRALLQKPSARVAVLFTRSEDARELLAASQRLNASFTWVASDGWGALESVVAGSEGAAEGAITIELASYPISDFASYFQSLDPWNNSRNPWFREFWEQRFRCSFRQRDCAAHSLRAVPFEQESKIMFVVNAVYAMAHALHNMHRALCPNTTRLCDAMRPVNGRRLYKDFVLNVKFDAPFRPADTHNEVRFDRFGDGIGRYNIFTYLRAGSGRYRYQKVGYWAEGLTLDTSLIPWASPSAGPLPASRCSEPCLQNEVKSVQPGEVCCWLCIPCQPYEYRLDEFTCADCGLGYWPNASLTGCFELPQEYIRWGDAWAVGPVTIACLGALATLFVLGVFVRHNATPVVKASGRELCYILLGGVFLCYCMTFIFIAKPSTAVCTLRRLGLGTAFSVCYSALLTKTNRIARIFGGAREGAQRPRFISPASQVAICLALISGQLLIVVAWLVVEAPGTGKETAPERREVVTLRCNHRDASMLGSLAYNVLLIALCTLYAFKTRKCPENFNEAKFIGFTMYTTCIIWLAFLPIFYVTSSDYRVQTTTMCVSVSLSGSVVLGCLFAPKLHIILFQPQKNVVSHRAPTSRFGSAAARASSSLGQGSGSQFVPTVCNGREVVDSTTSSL

Row | IC50 [nM] | SMILES
1 | 10.8 | NC(=O)c1cc(-c2cnn(C(F)F)c2)c2c(n1)CN(Cc1ccnc(C3CC3)c1)CC2 [Example 2-9, 7-[(2-cyclopropylpyridin-4-yl)methyl]-4-[1-(difluoromethyl)-1H-pyrazol-4-yl]-5,6,7,8-tetrahydro-1,7-naphthyridine-2-carboxamide]
2 | 11 | NC(=O)c1cc(-c2c(F)cc(Cl)cc2F)c2c(n1)CN(Cc1ccnn1C(F)F)CC2 [Example 2-20, 4-(4-chloro-2,6-difluorophenyl)-7-{[1-(difluoromethyl)-1H-pyrazol-5-yl]methyl}-5,6,7,8-tetrahydro-1,7-naphthyridine-2-carboxamide]
3 | 9.9 | NC(=O)c1cc(-c2ccc(F)cc2F)c2c(n1)CN(C(CO)c1ccccc1)CC2 (racemic) [Example 8-2A, (S) and (R)-4-(2,4-difluorophenyl)-7-(2-hydroxy-1-phenylethyl)-5,6,7,8-tetrahydro-1,7-naphthyridine-2-carboxamide]
4 | 188 | NC(=O)c1cc(-c2cccc(C(F)(F)F)c2)c2c(n1)CN(Cc1ccnc(C(F)(F)F)c1)CC2 [Example 2-8, 4-[3-(trifluoromethyl)phenyl]-7-{[2-(trifluoromethyl)pyridin-4-yl]methyl}-5,6,7,8-tetrahydro-1,7-naphthyridine-2-carboxamide]
5 | 117 | NC(=O)c1ccc(CN2CCc3c(-c4ccc(F)cc4)cc(C(N)=O)nc3C2)cc1 [Example 2-3, 7-(4-carbamoylbenzyl)-4-(4-fluorophenyl)-5,6,7,8-tetrahydro-1,7-naphthyridine-2-carboxamide]
6 | 28.2 | NC(=O)c1cc(-c2ccc(F)cc2)c2c(n1)CN(Cc1ccccc1C(N)=O)CC2 [Example 2-2, 7-(2-carbamoylbenzyl)-4-(4-fluorophenyl)-5,6,7,8-tetrahydro-1,7-naphthyridine-2-carboxamide]
7 | 5.7 | COc1cc(CN2CCc3c(-c4ccc(F)cc4Cl)cc(C(N)=O)nc3C2)ccn1 [Example 13-4, 4-(2-chloro-4-fluorophenyl)-7-[(2-methoxypyridin-4-yl)methyl]-5,6,7,8-tetrahydro-1,7-naphthyridine-2-carboxamide]
8 | 21.2 | NC(=O)c1cc(-c2ccc(F)cc2)c2c(n1)CN(C(c1cccnc1)C(F)(F)F)CC2 (racemic) [Example 3-1A, (S) and (R)-4-(4-fluorophenyl)-7-(2,2,2-trifluoro-1-(pyridin-3-yl)ethyl)-5,6,7,8-tetrahydro-1,7-naphthyridine-2-carboxamide]
9 | 79.1 | C[C@@H]1CN(c2cc(C(N)=O)nc3c2CCN(Cc2ccnc(C(F)(F)F)c2)C3)CCO1 [Example 5-2, (R)-4-(2-methylmorpholino)-7-((2-(trifluoromethyl)pyridin-4-yl)methyl)-5,6,7,8-tetrahydro-1,7-naphthyridine-2-carboxamide]
10 | 13.2 | CC1c2nc(C(N)=O)cc(N3CCCCC3)c2CCN1Cc1ccnn1C(C)C (single isomer, unassigned) [Example 1-19, (S) or (R)-8-methyl-7-{[1-(1-methylethyl)-1H-pyrazol-5-yl]methyl}-4-piperidin-1-yl-5,6,7,8-tetrahydro-1,7-naphthyridine-2-carboxamide]
11 | 14.6 | Cn1cc(CN2CCc3c(-c4ccc(Cl)cc4F)cc(C(N)=O)nc3C2)cn1 [Example 10-4, 4-(4-chloro-2-fluorophenyl)-7-[(1-methyl-1H-pyrazol-4-yl)methyl]-5,6,7,8-tetrahydro-1,7-naphthyridine-2-carboxamide]
12 | 153 | Cc1cc(-c2cc(C(N)=O)nc3c2CCN(Cc2ccnc(C(F)(F)F)c2)C3)ccn1 [Example 2-14, 4-(2-methylpyridin-4-yl)-7-{[2-(trifluoromethyl)pyridin-4-yl]methyl}-5,6,7,8-tetrahydro-1,7-naphthyridine-2-carboxamide]
13 | 21.8 | Cc1cnn(C)c1CN1CCc2c(-c3ccc(F)cc3F)cc(C(N)=O)nc2C1 [Example 1-10, 4-(2,4-difluorophenyl)-7-[(1,4-dimethyl-1H-pyrazol-5-yl)methyl]-5,6,7,8-tetrahydro-1,7-naphthyridine-2-carboxamide]
14 | 52.7 | NC(=O)c1cccc(CN2CCc3c(-c4ccc(F)cc4)cc(C(N)=O)nc3C2)c1 [Example 2-1, 7-(3-carbamoylbenzyl)-4-(4-fluorophenyl)-5,6,7,8-tetrahydro-1,7-naphthyridine-2-carboxamide]
15 | 8.7 | Cn1nccc1CN1CCc2c(-c3ccc(Cl)cc3F)cc(C(N)=O)nc2C1 [Example 1-8, 4-(4-chloro-2-fluorophenyl)-7-[(1-methyl-1H-pyrazol-5-yl)methyl]-5,6,7,8-tetrahydro-1,7-naphthyridine-2-carboxamide]
16 | 14.1 | Cn1cncc1CN1CCc2c(-c3ccc(Cl)cc3F)cc(C(N)=O)nc2C1 [Example 1-16, 4-(4-chloro-2-fluorophenyl)-7-[(1-methyl-1H-imidazol-5-yl)methyl]-5,6,7,8-tetrahydro-1,7-naphthyridine-2-carboxamide]

Row | IC50 [nM] | SMILES
17 | 31.7 | CC1(C)CC(O)(CN2CCc3c(-c4ccc(F)cc4F)cc(C(N)=O)nc3C2)CCO1 (single isomer, unassigned) [Example 14-2A]
18 | 1150 | Cc1csc(-c2cc(C(N)=O)nc3c2CCN(Cc2ccnc(C(F)(F)F)c2)C3)n1 [Example 6-2, 4-(4-methyl-1,3-thiazol-2-yl)-7-{[2-(trifluoromethyl)pyridin-4-yl]methyl}-5,6,7,8-tetrahydro-1,7-naphthyridine-2-carboxamide]
19 | 24.4 | CC1(C)CCC(CN2CCc3c(-c4ccc(F)cc4F)cc(C(N)=O)nc3C2)CO1 (single isomer, unassigned) [Example 1-20, (S) or (R)-4-(2,4-difluorophenyl)-7-[(6,6-dimethyltetrahydro-2H-pyran-3-yl)methyl]-5,6,7,8-tetrahydro-1,7-naphthyridine-2-carboxamide]
20 | 30.3 | NC(=O)c1cc(-c2cnn(C(F)F)c2)c2c(n1)CN(Cc1ccnc(C(F)(F)F)c1)CC2 [Example 2-5, 4-[1-(difluoromethyl)-1H-pyrazol-4-yl]-7-{[2-(trifluoromethyl)pyridin-4-yl]methyl}-5,6,7,8-tetrahydro-1,7-naphthyridine-2-carboxamide]
21 | 12.7 | Cc1noc(CN2CCc3c(-c4ccc(Cl)cc4F)cc(C(N)=O)nc3C2)n1 [Example 9-5, 4-(4-chloro-2-fluorophenyl)-7-[(3-methyl-1,2,4-oxadiazol-5-yl)methyl]-5,6,7,8-tetrahydro-1,7-naphthyridine-2-carboxamide]
22 | 23 | NC(=O)c1cc(-c2cc(C3CC3)ns2)c2c(n1)CN(Cc1ccnc(OC(F)F)c1)CC2 [Example 2-27, 4-(3-cyclopropylisothiazol-5-yl)-7-{[2-(difluoromethoxy)pyridin-4-yl]methyl}-5,6,7,8-tetrahydro-1,7-naphthyridine-2-carboxamide]
23 | 9.9 | Cc1ccc(-c2cc(C(N)=O)nc3c2CCN(Cc2ccnn2C(C)C)C3)c(F)c1 [Example 1-12, 4-(2-fluoro-4-methylphenyl)-7-{[1-(1-methylethyl)-1H-pyrazol-5-yl]methyl}-5,6,7,8-tetrahydro-1,7-naphthyridine-2-carboxamide]
24 | 129 | NC(=O)c1cc(-c2ccc(F)cc2)c2c(n1)CN(C[C@@H]1CCO[C@H](C3CC3)C1)CC2 [Example 1-2A, 7-(((2S,4R)-2-cyclopropyltetrahydro-2H-pyran-4-yl)methyl)-4-(4-fluorophenyl)-5,6,7,8-tetrahydro-1,7-naphthyridine-2-carboxamide]
25 | 98.2 | NC(=O)c1cc(-c2ccc(F)cc2)c2c(n1)CN(C[C@H]1CCN[C@@H](C(F)(F)F)C1)CC2 [Example 1-1A, 4-(4-fluorophenyl)-7-(((2R,4S)-2-(trifluoromethyl)piperidin-4-yl)methyl)-5,6,7,8-tetrahydro-1,7-naphthyridine-2-carboxamide]
26 | 7.2 | NC(=O)c1cc(-c2ccc(Cl)cc2F)c2c(n1)CN(Cc1ccnc(C(F)(F)F)n1)CC2 [Example 11-3, 4-(4-chloro-2-fluorophenyl)-7-{[2-(trifluoromethyl)pyrimidin-4-yl]methyl}-5,6,7,8-tetrahydro-1,7-naphthyridine-2-carboxamide]
27 | 14.7 | CC1(C)CC(CN2CCc3c(-c4ccc(F)cc4F)cc(C(N)=O)nc3C2(C)C)CCO1 (racemic) [Example 1-23A, (R) and (S)-4-(2,4-difluorophenyl)-7-((2,2-dimethyltetrahydro-2H-pyran-4-yl)methyl)-8,8-dimethyl-5,6,7,8-tetrahydro-1,7-naphthyridine-2-carboxamide]
28 | 13.8 | Cc1cc(CN2CCc3c(-c4ccc(F)cc4F)cc(C(N)=O)nc3C2)n(C)n1 [Example 1-7, 4-(2,4-difluorophenyl)-7-[(1,3-dimethyl-1H-pyrazol-5-yl)methyl]-5,6,7,8-tetrahydro-1,7-naphthyridine-2-carboxamide]
29 | 179 | CC(C)(C)[C@H]1C[C@@H](CN2CCc3c(-c4ccc(F)cc4)cc(C(N)=O)nc3C2)CCO1 [Example 1-3B, 7-(((2R,4S)-2-(tert-butyl)tetrahydro-2H-pyran-4-yl)methyl)-4-(4-fluorophenyl)-5,6,7,8-tetrahydro-1,7-naphthyridine-2-carboxamide]
30 | 5.7 | NC(=O)c1cc(-c2ccc(F)cc2F)c2c(n1)CN(Cc1cc(C(F)(F)F)ncn1)CC2 [Example 2-23, 4-(2,4-difluorophenyl)-7-{[6-(trifluoromethyl)pyrimidin-4-yl]methyl}-5,6,7,8-tetrahydro-1,7-naphthyridine-2-carboxamide]
31 | 12 | NC(=O)c1cc(-c2ccc(Cl)cc2F)c2c(n1)CN(Cc1cccnc1)CC2 [Example 10-3, 4-(4-chloro-2-fluorophenyl)-7-(pyridin-3-ylmethyl)-5,6,7,8-tetrahydro-1,7-naphthyridine-2-carboxamide]
32 | 33.7 | Cn1nncc1CN1CCc2c(-c3c(F)cc(F)cc3F)cc(C(N)=O)nc2C1 [Example 2-21, 7-[(1-methyl-1H-1,2,3-triazol-5-yl)methyl]-4-(2,4,6-trifluorophenyl)-5,6,7,8-tetrahydro-1,7-naphthyridine-2-carboxamide]
